Assay results: patent US20250230193A1, “CYCLIC COMPOUND HAVING SELECTIVE KRAS INHIBITORY EFFECT ON HRAS AND NRAS” (CHUGAI SEIYAKU KABUSHIKI KAISHA, priority 2022, published 2025)

Legend:
[1] = biological target: GDP-bound NRAS wild-type protein (Homo sapiens, UniProt P01111); experiment: Binding to NRAS by surface plasmon resonance (SPR), Single Cycle Kinetics; conditions: SPR
[2] = biological target: GDP-bound HRAS wild-type protein (Homo sapiens, UniProt P01112); experiment: Binding to HRAS by surface plasmon resonance (SPR), Single Cycle Kinetics; conditions: SPR
GDP-bound HRAS wild-type protein, sequence (P01112 whole entry): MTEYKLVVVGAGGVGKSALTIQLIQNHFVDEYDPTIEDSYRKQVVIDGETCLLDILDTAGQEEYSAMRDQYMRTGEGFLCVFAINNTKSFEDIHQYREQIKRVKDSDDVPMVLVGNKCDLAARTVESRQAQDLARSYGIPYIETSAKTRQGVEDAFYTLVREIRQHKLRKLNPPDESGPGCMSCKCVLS

[3] = GDP-bound NRAS wild-type vs GDP-bound KRAS wild-type
[4] = GDP-bound HRAS wild-type vs GDP-bound KRAS wild-type

GDP-bound NRAS wild-type protein, sequence (P01111 whole entry): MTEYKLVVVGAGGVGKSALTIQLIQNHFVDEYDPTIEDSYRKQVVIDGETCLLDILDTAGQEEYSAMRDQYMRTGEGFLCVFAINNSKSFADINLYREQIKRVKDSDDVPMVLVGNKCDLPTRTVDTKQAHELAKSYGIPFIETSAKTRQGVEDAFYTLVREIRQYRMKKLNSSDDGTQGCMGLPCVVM

Structure (SMILES): CCC[C@H]1C(=O)N[C@@H](C2CCCC2)C(=O)N(C)CC(=O)N(C)[C@H]2C/C=C\CCN(C2=O)[C@@H](Cc2ccc(C(F)(F)F)cc2)C(=O)N(C)CC(=O)N[C@@H](CCc2ccc(C(F)(F)F)c(Cl)c2)C(=O)N2C[C@H](OCC)C[C@H]2C(=O)NC2(CC(C)(C)C2)C(=O)N(C)[C@@H](CC(C)(C)C)C(=O)N(C)[C@H](C(=O)N(C)C)CC(=O)N1C [PP2971]
- NRAS/KRAS (ratio of KD value with respect to GDP-bound NRAS wild-type protein to KD value with respect to KRAS) ([1]; GDP-bound wild-type proteins): A (a compound having 10 or more and less than 20 is denoted as A)
- HRAS/KRAS (ratio of KD value with respect to GDP-bound HRAS wild-type protein to KD value with respect to KRAS) ([2]; GDP-bound wild-type proteins): A (a compound having 10 or more and less than 20 is denoted as A)

Structure (SMILES): CCC[C@H]1C(=O)N[C@@H]([C@@H](C)CC)C(=O)N(C2CC2)CC(=O)N(C)[C@H]2C/C=C\CCN(C2=O)[C@@H](Cc2ccc(C(F)(F)F)cc2)C(=O)N(C)CC(=O)N[C@@H](CCc2cc(F)c(C(F)(F)F)c(F)c2)C(=O)N2C[C@H](OCC)C[C@H]2C(=O)NC2(CC(C)(C)C2)C(=O)N(C)[C@@H](C2CCCC2)C(=O)N(C)[C@H](C(=O)N(C)C)CC(=O)N1C [PP2101]
- NRAS/KRAS (ratio of KD value with respect to NRAS to KD value with respect to KRAS) [1, 3]: A (a compound having 10 or more and less than 20 is denoted as A)
- HRAS/KRAS (ratio of KD value with respect to HRAS to KD value with respect to KRAS) [2, 4]: B (a compound having 3 or more and less than 10 is denoted as B)

Structure (SMILES): CCCOC[C@H]1C(=O)N[C@@H]([C@@H](C)CC)C(=O)N(C)CC(=O)N(C)[C@H]2C/C=C\CCN(C2=O)[C@@H](Cc2ccc(C)cc2)C(=O)N(C)CC(=O)N[C@@H](CCc2ccc(C(F)(F)F)c(Cl)c2)C(=O)N2C[C@@H](C)C[C@H]2C(=O)NC2(CC(C)(C)C2)C(=O)N(C)[C@@H](C2CCCC2)C(=O)N(C)[C@H](C(=O)N(C)C)CC(=O)N1C [PP2453]
- NRAS/KRAS (ratio of KD value with respect to NRAS to KD value with respect to KRAS) [1, 3]: A (a compound having 10 or more and less than 20 is denoted as A)
- HRAS/KRAS (ratio of KD value with respect to HRAS to KD value with respect to KRAS) [2, 4]: A (a compound having 10 or more and less than 20 is denoted as A)

Structure (SMILES): CC[C@H](C)[C@@H]1NC(=O)[C@H](CC(C)C)N(C)C(=O)C[C@@H](C(=O)N2CCOCC2)N(C)C(=O)[C@H](C2CCCC2)N(C)C(=O)C2(CCCC2)NC(=O)[C@@H]2CCCN2C(=O)[C@H](CCc2ccc(C(F)(F)F)c(Cl)c2)NC(=O)CN(C)C(=O)[C@H](Cc2ccccc2)N2CCCC[C@@H](C2=O)N(C)C(=O)CN(C)C1=O [PP0529]
- NRAS/KRAS (ratio of KD value with respect to GDP-bound NRAS wild-type protein to KD value with respect to KRAS) [1]: C (A compound having a KD ratio of 0.1 or more and less than 3 is denoted as C)
- HRAS/KRAS (ratio of KD value with respect to GDP-bound HRAS wild-type protein to KD value with respect to KRAS) [2]: B (a compound having 3 or more and less than 10 is denoted as B)

Structure (SMILES): CCO[C@@H]1C[C@H]2C(=O)NC3(CC(C)(C)C3)C(=O)N(C)[C@@H](C3CCCC3)C(=O)N(C)[C@H](C(=O)N(C)C)CC(=O)N(C)[C@@H](COC)C(=O)N[C@@H]([C@@H](C)CC)C(=O)N(C)CC(=O)N(C)[C@H]3C/C=C\CCN(C3=O)[C@@H](Cc3ccc(C)cc3)C(=O)N(C)CC(=O)N[C@@H](CCc3cc(F)c(C(F)(F)F)c(F)c3)C(=O)N2C1 [PP2391]
- NRAS/KRAS (ratio of KD value with respect to NRAS to KD value with respect to KRAS) [1, 3]: A (a compound having 10 or more and less than 20 is denoted as A)
- HRAS/KRAS (ratio of KD value with respect to HRAS to KD value with respect to KRAS) [2, 4]: A (a compound having 10 or more and less than 20 is denoted as A)

Structure (SMILES): CCC[C@H]1C(=O)N[C@@H]([C@@H](C)CC)C(=O)N(C2CC2)CC(=O)N(C)[C@H]2C/C=C\CCN(C2=O)[C@@H](Cc2ccc(C(F)(F)F)cc2)C(=O)N(C)CC(=O)N[C@@H](CCc2ccc(C(F)(F)F)c(OC)c2)C(=O)N2C[C@H](OCC)C[C@H]2C(=O)N(C)C2(CCC2)C(=O)N(C)[C@@H](C2CCCC2)C(=O)N(C)[C@H](C(=O)N2CCCCC2)CC(=O)N1C [PP3095, (2S,8S,12R,14S,20S,23S,27S,30S,36S,38Z)-20-cyclopentyl-32-cyclopropyl-12-ethoxy-8-[2-[3-methoxy-4-(trifluoromethyl)phenyl]ethyl]-4,16,19,22,26,35-hexamethyl-30-[(1S)-1-methylpropyl]-23-(piperidine-1-carbonyl)-27-propyl-2-[[4-(trifluoromethyl)phenyl]methyl]spiro[1,4,7,10,16,19,22,26,29,32,35-undecazatricyclo[34.5.1.0^10,14]dotetracont-38-ene-17,1′-cyclobutane]-3,6,9,15,18,21,25,28,31,34,42-undecone]
- NRAS/KRAS (ratio of KD value with respect to GDP-bound NRAS wild-type protein to KD value with respect to KRAS) ([1]; GDP-bound wild-type proteins): A (a compound having 10 or more and less than 20 is denoted as A)
- HRAS/KRAS (ratio of KD value with respect to GDP-bound HRAS wild-type protein to KD value with respect to KRAS) ([2]; GDP-bound wild-type proteins): A (a compound having 10 or more and less than 20 is denoted as A)

Structure (SMILES): CCO[C@@H]1C[C@H]2C(=O)NC3(CCC3)C(=O)N(C)[C@@H](C3CCCC3)C(=O)N(C)[C@H](C(=O)N(C)CC)CC(=O)N(C)[C@@H](CC)C(=O)N[C@@H]([C@@H](C)CC)C(=O)N(C)CC(=O)N(C)[C@H]3C/C=C\CCN(C3=O)[C@@H](Cc3ccc(C)cc3)C(=O)N(C)CC(=O)N[C@@H](CCc3ccc(C(F)(F)F)c(OC)c3)C(=O)N2C1 [PP1869]
- NRAS/KRAS (ratio of KD value for NRAS to KD value for KRAS) ([1]; KD ratio, GDP-bound NRAS wild-type vs GDP-bound KRAS wild-type): A (a compound having 10 or more and less than 20 is denoted as A)
- HRAS/KRAS (ratio of KD value for HRAS to KD value for KRAS) ([2]; KD ratio, GDP-bound HRAS wild-type vs GDP-bound KRAS wild-type): A (a compound having 10 or more and less than 20 is denoted as A)
